“And” between values parts separate entries of the source, which are not always exact repeats. Identical values can stand only once. Inconclusive results and toxic doses are left out. How the source made its calls: active means survival T/C of 150% or more; inactive means T/C below 125% in these data.
System: P388 leukemia ip, CD2F1 mice, survival T/C
Assay: NCI In Vivo Anticancer Drug Screen. Data for tumor model P388 Leukemia (intraperitoneal) in CD2F1 (CDF1) mice
Settings: endpoint: median survival time, higher = longer survival
Outline: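 Mice carrying the transplanted tumor received test compound or vehicle. Survival was recorded in each group, and the value is the treated-group measurement divided by that of the vehicle-treated control group.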

[1] = dose: 50.0 mg/kg/injection, schedule: Q01DX005 (ip), vehicle: Klucel (hydroxypropylcellulose) (HPC)
[2] = dose: 100.0 mg/kg/injection, schedule: Q01DX005 (ip), vehicle: Klucel (hydroxypropylcellulose) (HPC)
[3] = dose: 200.0 mg/kg/injection, schedule: Q01DX005 (ip), vehicle: Klucel (hydroxypropylcellulose) (HPC)
[4] = dose: 50.0 mg/kg/injection, schedule: Q01DX005 (ip), vehicle: saline
[5] = dose: 100.0 mg/kg/injection, schedule: Q01DX005 (ip), vehicle: saline
[6] = dose: 200.0 mg/kg/injection, schedule: Q01DX005 (ip), vehicle: saline
[7] = dose: 60.0 mg/kg/injection, schedule: Q01DX005 (ip), vehicle: saline with Tween-80
[8] = dose: 120.0 mg/kg/injection, schedule: Q01DX005 (ip), vehicle: saline with Tween-80
[9] = dose: 240.0 mg/kg/injection, schedule: Q01DX005 (ip), vehicle: saline with Tween-80
[10] = dose: 50.0 mg/kg/injection, schedule: Q01DX005 (ip), vehicle: saline with Tween-80
[11] = dose: 100.0 mg/kg/injection, schedule: Q01DX005 (ip), vehicle: saline with Tween-80
[12] = dose: 200.0 mg/kg/injection, schedule: Q01DX005 (ip), vehicle: saline with Tween-80
[13] = dose: 100.0 mg/kg/injection, schedule: Q01DX009 (ip), vehicle: Klucel (hydroxypropylcellulose) (HPC)
[14] = dose: 200.0 mg/kg/injection, schedule: Q01DX009 (ip), vehicle: Klucel (hydroxypropylcellulose) (HPC)
[15] = dose: 25.0 mg/kg/injection, schedule: Q01DX005 (ip), vehicle: Klucel (hydroxypropylcellulose) (HPC)
[16] = dose: 50.0 mg/kg/injection, schedule: Q01DX009 (ip), vehicle: saline
[17] = dose: 100.0 mg/kg/injection, schedule: Q01DX009 (ip), vehicle: saline
[18] = dose: 200.0 mg/kg/injection, schedule: Q01DX009 (ip), vehicle: saline

Measured: T/C

C=C(NC(C)=O)C(=O)CCC(N)=O
inactive: dose: 5.0 mg/kg/injection, schedule: Q01DX009 (ip), vehicle: saline sonified 109 % of control | dose: 10.0 mg/kg/injection, schedule: Q01DX009 (ip), vehicle: saline sonified 109 % of control | dose: 20.0 mg/kg/injection, schedule: Q01DX009 (ip), vehicle: saline sonified 104 % of control

O=C1C=C2CCCCCCCCCC(C1)C2 (configuration not stated)
inactive: [1] 99 % of control | [2] 99 % of control | [3] 89 % of control

CC(=O)/C(=C\c1ccc(C)cc1)C(=O)CCN(C)C
inactive: [4] 108 % of control | [5] 108 % of control | [6] 111 % of control

N#Cc1ccc(N=NN2CCOC2)cc1
inactive: [7] 86 % of control | [8] 100 % of control | [9] 93 % of control

CCCCCn1c(CN2CCCCC2)nc2c1-c1ccccc1C(=O)C2=O
inactive: dose: 50.0 mg/kg/injection, schedule: Q01DX001 (ip), vehicle: saline with Tween-80 100 % of control | dose: 100.0 mg/kg/injection, schedule: Q01DX001 (ip), vehicle: saline with Tween-80 100 % of control | dose: 200.0 mg/kg/injection, schedule: Q01DX001 (ip), vehicle: saline with Tween-80 100 % of control

CC(=O)C(=Cc1ccc(C)cc1)C(C)=O
inactive: [10] 99 % of control | [11] 103 % of control | [12] 110 % of control

CC(=O)/C(C)=C/O
inactive: [4] 98 % of control | [5] 104 % of control | [6] 104 % of control

COc1nc(NC2OC(COC(C)=O)C(OC(C)=O)C(OC(C)=O)C2OC(C)=O)c2ccoc2n1 (configuration not stated)
inactive: [7] 100 % of control | [8] 101 % of control | [9] 98 % of control

COC(=O)C1(CC(=O)c2ccco2)NC(=S)NC(=O)C1C#N (configuration not stated)
inactive: [7] 98 % of control | [8] 94 % of control | [9] 93 % of control

CCOC=Nc1c(N)ncnc1Cl
inactive: [13] 102 % of control | [14] 105 % of control | dose: 400.0 mg/kg/injection, schedule: Q01DX009 (ip), vehicle: Klucel (hydroxypropylcellulose) (HPC) 106 % of control

[Cl][Zn][Cl].c1ccc2[nH]cnc2c1.c1ccc2[nH]cnc2c1
inactive: dose: 12.5 mg/kg/injection, schedule: Q01DX005 (ip), vehicle: Klucel (hydroxypropylcellulose) (HPC) 100 % of control | [15] 108 % of control | [1] 100 % of control

COC(=O)C(CO)Nc1ccccc1 (configuration not stated)
inactive: [7] 103 % of control | [8] 99 % of control | [9] 96 % of control

CCn1c2ccccc2c2cc(N)c(N=Nc3cc(OC)c(N=Nc4ccc([N+](=O)[O-])cc4)cc3OC)cc21
inactive: dose: 50.0 mg/kg/injection, schedule: Q01DX009 (ip), vehicle: Klucel (hydroxypropylcellulose) (HPC) 104 % of control | [13] 105 % of control | [14] 112 % of control

OCC1C=Cc2ccccc21 (configuration not stated)
inactive: [16] 109 % of control | [17] 107 % of control | [18] 114 % of control

N=C1N=Nc2nc(C(C(=O)c3ccc(O)cc3O)c3nc4n(c3O)C(=N)N=N4)c(O)n21 (configuration not stated)
inactive: [7] 100 % of control | [8] 104 % of control | [9] 103 % of control

CN(C)c1c2c(=O)n(C)c(=O)n(C)c2nc2cccc[n+]12
inactive: [1] 95 % of control | [2] 106 % of control | [3] 104 % of control

O=C(/C=C/c1ccccc1)CC1=NC2NN(c3ccccc3)C(=O)C2=C1CC(=O)/C=C/c1ccccc1 (configuration not stated)
inactive: dose: 60.0 mg/kg/injection, schedule: Q01DX005 (ip), vehicle: suspension in saline 95 % of control | dose: 120.0 mg/kg/injection, schedule: Q01DX005 (ip), vehicle: suspension in saline 99 % of control | dose: 240.0 mg/kg/injection, schedule: Q01DX005 (ip), vehicle: suspension in saline 107 % of control

NC(=S)c1ccc(N=Cc2c(O)ccc3ccccc23)cc1
inactive: dose: 50.0 mg/kg/injection, schedule: Q01DX001 (ip), vehicle: Klucel (hydroxypropylcellulose) (HPC) 100 % of control | dose: 100.0 mg/kg/injection, schedule: Q01DX001 (ip), vehicle: Klucel (hydroxypropylcellulose) (HPC) 94 % of control | dose: 200.0 mg/kg/injection, schedule: Q01DX001 (ip), vehicle: Klucel (hydroxypropylcellulose) (HPC) 97 % of control

Cc1ccccc1NC(CCN1CCCCC1)=NC(C)(C)C
inactive: dose: 50.0 mg/kg/injection, schedule: Q01DX009 (ip), vehicle: saline with Tween-80 111 % of control | dose: 100.0 mg/kg/injection, schedule: Q01DX009 (ip), vehicle: saline with Tween-80 103 % of control | dose: 200.0 mg/kg/injection, schedule: Q01DX009 (ip), vehicle: saline with Tween-80 100 % of control

CP1(=S)CCC2=C1c1ccc(O)cc1CC2 (configuration not stated)
inactive: [16] 100 % of control | [17] 100 % of control | [18] 101 % of control

CC(=O)C1=C(C)C2CC3(C)CC(C2(C)C1)C3(C)C (configuration not stated)
inactive: [10] 100 % of control | [11] 102 % of control | [12] 100 % of control

O=C(Nc1ccc(N=C(c2ccccc2)N2CCOCC2)cc1)c1ccc(C(=O)Nc2ccc(N=C(c3ccccc3)N3CCOCC3)cc2)cc1
inactive: [15] 101 % of control | [1] 101 % of control | [2] 93 % of control | [3] 96 % of control

Nc1ncc2c(n1)CSCC2=O
inactive: [7] 98 % of control | [8] 100 % of control | [9] 90 % of control

COc1ccc(Cc2cc(C(C)(C)C)cc(C(C)(C)C)c2O)cc1
inactive: dose: 50.0 mg/kg/injection, schedule: Q01DX005 (ip), vehicle: distilled water + alcohol 96 % of control | dose: 100.0 mg/kg/injection, schedule: Q01DX005 (ip), vehicle: distilled water + alcohol 96 % of control | dose: 200.0 mg/kg/injection, schedule: Q01DX005 (ip), vehicle: distilled water + alcohol 95 % of control

C[C@]12CC[C@H](O)C[C@@H]1CC[C@@H]1[C@@H]2C(=O)C[C@@]2(C)[C@H]1CC[C@]2(O)C(=O)CBr
inactive: dose: 264.0 mg/kg/injection, schedule: Q04DX003 (ip), vehicle: saline with Tween-80 109 % of control | dose: 400.0 mg/kg/injection, schedule: Q04DX003 (ip), vehicle: saline with Tween-80 100 % of control | dose: 600.0 mg/kg/injection, schedule: Q04DX003 (ip), vehicle: saline with Tween-80 95 % of control

CCN(CC)CCCC(C)Nc1nccc2c(Cl)cccc12 (configuration not stated)
inactive: [4] 108 % of control | [5] 109 % of control

Cc1ccc2c(c1)C1(C)OC(C=CC1=O)O2 (configuration not stated)
inactive: dose: 25.0 mg/kg/injection, schedule: Q04DX003 (ip), vehicle: Klucel (hydroxypropylcellulose) (HPC) 99 % of control and 119 % of control | dose: 50.0 mg/kg/injection, schedule: Q04DX003 (ip), vehicle: Klucel (hydroxypropylcellulose) (HPC) 98 % of control | dose: 100.0 mg/kg/injection, schedule: Q04DX003 (ip), vehicle: Klucel (hydroxypropylcellulose) (HPC) 123 % of control and 97 % of control | dose: 200.0 mg/kg/injection, schedule: Q04DX003 (ip), vehicle: Klucel (hydroxypropylcellulose) (HPC) 113 % of control

— PubChem BioAssay AID330 (DTP/NCI, 2004)
